Measured values as given in US7985759B2, “Dipeptidyl peptidase IV inhibitors and processes for their preparation and pharmaceutical compositions containing them” (Matrix Laboratories Ltd., priority 2006, dated 2011).

Target: T1, Human recombinant DPP-IV (Homo sapiens, UniProt P27487)
T1 construct: host or cells: Sf9 insect cells
Experiment: Assay of Dipeptidyl Peptidase IV activity (hydrolysis of Ala-Pro-AFC, fluorometric)
Type: biochemical
Settings: human recombinant DPP-IV (expressed in insect Sf9 cells), 20 μM Ala-Pro-AFC, 15 min preincubation, 30 min at 37° C., pH 8.0
Method: Assay of Dipeptidyl Peptidase IV Activity
The inhibition of proteolytic activity of DPP-IV was assayed by following the hydrolysis of Ala-Pro-7-amino-4-trifluoromethylcoumarin (Ala-Pro-AFC) and fluorometric quantitation of the liberated AFC. Human recombinant DPP-IV (expressed in insect Sf9 cells) was used for the assay. Test compounds were dissolved in dimethyl sulfoxide (DMSO). Generally, the enzyme (about 20 ng/ml in 100 mM Tris-HCl buffer, pH 8.0) was preincubated in the absence (1% DMSO) and presence of various concentrations of the test compounds for 15 min at 37° C. The reaction was initiated by the addition of 20 μM Ala-Pro-AFC and further incubated for 30 min at 37° C. The AFC liberated was measured in a spectrofluorometer with excitation and emission wavelengths set at 400 nm and 510 nm, respectively. Results are expressed as percent inhibition of enzyme activity. A reference standard (a known inhibitor of DPP-IV) was always included in the assay.

T1 sequence (P27487 whole entry): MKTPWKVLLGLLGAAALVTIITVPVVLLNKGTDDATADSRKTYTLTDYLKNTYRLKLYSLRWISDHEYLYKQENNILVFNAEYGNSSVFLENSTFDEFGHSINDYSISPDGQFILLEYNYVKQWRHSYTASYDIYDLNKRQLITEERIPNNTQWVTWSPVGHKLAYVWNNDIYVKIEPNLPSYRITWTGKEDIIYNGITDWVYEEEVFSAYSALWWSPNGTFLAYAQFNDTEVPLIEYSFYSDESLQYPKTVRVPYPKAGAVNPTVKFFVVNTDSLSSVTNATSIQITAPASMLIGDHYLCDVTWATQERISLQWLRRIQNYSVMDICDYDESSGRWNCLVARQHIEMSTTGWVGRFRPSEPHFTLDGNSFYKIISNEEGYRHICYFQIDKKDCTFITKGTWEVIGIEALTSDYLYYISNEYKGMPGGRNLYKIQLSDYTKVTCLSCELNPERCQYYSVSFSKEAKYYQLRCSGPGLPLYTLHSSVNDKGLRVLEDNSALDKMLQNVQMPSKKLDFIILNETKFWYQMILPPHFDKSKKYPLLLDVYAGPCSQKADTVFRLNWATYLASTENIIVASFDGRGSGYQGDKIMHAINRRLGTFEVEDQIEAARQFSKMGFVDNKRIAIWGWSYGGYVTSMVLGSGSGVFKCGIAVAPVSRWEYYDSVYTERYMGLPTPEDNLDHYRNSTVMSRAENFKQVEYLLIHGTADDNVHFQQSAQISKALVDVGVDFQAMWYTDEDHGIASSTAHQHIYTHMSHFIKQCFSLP

IC50 | SMILES
30 nM | COC12CC3CC(C1)C(NCC(=O)N1CCC[C@H]1C#N)(C3)C2 (stereo partly drawn) [Example 22, (2S)-1-{[(1-methoxytricyclo[3.3.1.0^3,7]non-3-yl)amino]acetyl}pyrrolidine-2-carbonitrile]
30 nM | N#C[C@@H]1CCCN1C(=O)CNC12CC3CC(CC1C3)C2 [Example 20, (2S)-1-[(tricyclo[3.3.1.0^3,7]non-3-ylamino)acetyl]pyrrolidine-2-carbonitrile]
100 nM | N#C[C@@H]1CCCN1C(=O)CNC12CC3CC1CC(F)(C3)C2 (stereo partly drawn) [Example 25, (2S)-1-[N-(2-fluorohexahydro-2,5-methanopentalen-3a(1H)-yl)glycyl]pyrrolidine-2-carbonitrile]
64.5 nM | N#C[C@@H]1CCCN1C(=O)CNC12CC3CC1CC(O)(C3)C2 (stereo partly drawn) [Example 21, (2S)-1-{[(1-hydroxytricyclo[3.3.1.0^3,7]non-3-yl)amino]acetyl}pyrrolidine-2-carbonitrile]
21.8 nM | N#C[C@@H]1CCCN1C(=O)CNC12CC3CC1CC(N1CCCC1=O)(C3)C2 (stereo partly drawn) [Example 26, (2S)-1-{N-[2-(2-oxopyrrolidin-1-yl)hexahydro-2,5-methanopentalen-3a(1H)-yl]glycyl}pyrrolidine-2-carbonitrile]
~30 nM | N#C[C@@H]1CCCN1C(=O)CNC12CC3CC1CC(c1ccc(-n4cccc4)cc1)(C3)C2 (stereo partly drawn) [Example 18, (2S)-1-{N-[2-[4-(1H-pyrrol-1-yl)phenyl]hexahydro-2,5-methanopentalen-3a (1H)-yl]glycyl}pyrrolidine-2-carbonitrile]
~30 nM | N#C[C@@H]1CCCN1C(=O)CNC12CC3CC1CC(c1ccc([N+](=O)[O-])cc1)(C3)C2 (stereo partly drawn) [Example 29, (2S)-1-{N-[2-(4-nitrophenyl)hexahydro-2,5-methanopentalen-3a(1H)-yl]glycyl}pyrrolidine-2-carbonitrile]
100 nM | N#C[C@@H]1CCCN1C(=O)CNC12CC3CC1CC(N)(C3)C2 (stereo partly drawn) [Example 24, (2S)-1-{[(1-aminotricyclo[3.3.1.0^3,7]non-3-yl)amino]acetyl}pyrrolidine-2-carbonitrile]
30 nM | N#C[C@@H]1CCCN1C(=O)CNC12CC3CC1CC(c1ccccc1)(C3)C2 (stereo partly drawn) [Example 28, (2S)-1-[N-(2-phenylhexahydro-2,5-methanopentalen-3a(1H)-yl)glycyl]pyrrolidine-2-carbonitrile]
53.6 nM | CN1CCN(c2ccc(C34CC5CC(C3)C(NCC(=O)N3CCC[C@H]3C#N)(C5)C4)cc2)C1=O (stereo partly shown) [Example 32]
~32.4 nM | N#C[C@@H]1CCCN1C(=O)CNC12CC3CC1CC(c1ccc(N)cc1)(C3)C2 (stereo partly drawn) [Example 30, (2S)-1-{N-[2-(4-aminophenyl)hexahydro-2,5-methanopentalen-3a(1H)-yl]glycyl}pyrrolidine-2-carbonitrile]
11.9 nM | CCOC12CC3CC(C1)C(NCC(=O)N1CCC[C@H]1C#N)(C3)C2 (stereo partly drawn) [Example 23, (2S)-1-{[(1-ethoxytricyclo[3.3.1.0^3,7]non-3-yl)amino]acetyl}pyrrolidine-2-carbonitrile]
15.4 nM | N#C[C@@H]1CCCN1C(=O)CNC12CC3CC1CC(c1ccc(N4CCNC4=O)cc1)(C3)C2 (stereo partly drawn) [Example 19, (2S)-1-{N-[2-[4-(2-oxoimidazolidin-1-yl)phenyl]hexahydro-2,5-methanopentalen-3a(1H)-yl]glycyl}pyrrolidine-2-carbonitrile]
30 nM | N#C[C@@H]1CCCN1C(=O)CNC12CC3CC1CC(N1CCCS1(=O)=O)(C3)C2 (stereo partly drawn) [Example 27, (2S)-1-{N-[2-(1,1-dioxidoisothiazolidin-2-yl)hexahydro-2,5-methanopentalen-3a(1H)-yl]glycyl}pyrrolidine-2-carbonitrile]
21 nM | N#C[C@@H]1CCCN1C(=O)CNC12CC3CC1CC(Cc1ncon1)(C3)C2 (stereo partly shown) [Example 31]

More lines, now with the values behind:

SMILES | IC50
N#C[C@@H]1CCCN1C(=O)CNC12CC3CC1CC(CN1C(=O)c4ccccc4C1=O)(C3)C2 (stereo partly drawn) [Example 10, (2S)-1-{N-[2-[(1,3-dioxo-1,3-dihydro-2H-isoindol-2-yl)methyl]hexahydro-2,5-methanopentalen-3a(1H)-yl]glycyl}pyrrolidine-2-carbonitrile] | ~30 nM
N#C[C@@H]1CCCN1C(=O)CNC12CC3CC1CC(c1ccc(N4CCCS4(=O)=O)cc1)(C3)C2 (stereo partly drawn) [Example 11, (2S)-1-{N-[2-[4-(1,1-dioxidoisothiazolidin-2-yl)phenyl]hexahydro-2,5-methanopentalen-3a(1H)-yl]glycyl}pyrrolidine-2-carbonitrile] | 20 nM
N#C[C@@H]1CSCN1C(=O)CNC12CC3CC1CC(c1ccc(N4CCCS4(=O)=O)cc1)(C3)C2 (stereo partly drawn) [Example 14, (4R)-3-{N-[2-[4-(1,1-dioxidoisothiazolidin-2-yl)phenyl]hexahydro-2,5-methanopentalen-3a(1H)-yl]glycyl}-1,3-thiazolidine-4-carbonitrile] | 6.4 nM
N#C[C@@H]1C[C@H](F)CN1C(=O)CNC12CC3CC1CC(c1ccc(N4CCCC4=O)cc1)(C3)C2 (stereo partly drawn) [Example 16, (2S,4S)-4-fluoro-1-{N-[2-[4-(2-oxopyrrolidin-1-1)phenyl]hexahydro-2,5-methanopentalen-3a(1H)-yl]glycyl}pyrrolidine-2-carbonitrile] | 0.95 nM
N#C[C@@H]1C[C@H](F)CN1C(=O)CNC12CC3CC1CC(c1ccc(N4CCCS4(=O)=O)cc1)(C3)C2 (stereo partly drawn) [Example 12, (2S,4S)-1-{N-[2-[4-(1,1-dioxidoisothiazolidin-2-yl)phenyl]hexahydro-2,5-methanopentalen-3a(1H)-yl]glycyl}-4-fluoropyrrolidine-2-carbonitrile] | 5 nM
N#C[C@@H]1CCCN1C(=O)CNC12CC3CC1CC(CN1CCSCC1)(C3)C2 (stereo partly drawn) [Example 7, (2S)-1-{N-[2-(thiomorpholin-4-ylmethyl)hexahydro-2,5-methanopentalen-3a(1H)-yl]glycyl}pyrrolidine-2-carbonitrile] | 30 nM
N#C[C@@H]1CSCN1C(=O)CNC12CC3CC1CC(c1ccc(N4CCCC4=O)cc1)(C3)C2 (stereo partly drawn) [Example 17, (4R)-3-{N-[2-[4-(2-oxopyrrolidin-1-yl)phenyl]hexahydro-2,5-methanopentalen-3a(1H)-yl]glycyl}-1,3-thiazolidine-4-carbonitrile] | 8.7 nM
N#C[C@@H]1C[C@@H](F)CN1C(=O)CNC12CC3CC1CC(Cn1cncn1)(C3)C2 (stereo partly drawn) [Example 3, (2S,4R)-4-fluoro-1-{N-[2-(1H-1,2,4-triazol-1-ylmethyl)hexahydro-2,5-methanopentalen-3a(1H)-yl]glycyl}pyrrolidine-2-carbonitrile] | > 300 nM
N#C[C@@H]1CCCN1C(=O)CNC12CC3CC1CC(CN1C(=O)CSC1=O)(C3)C2 (stereo partly drawn) [Example 9, (2S)-1-{N-[2-[(2,4-dioxo-1,3-thiazolidin-3-yl)methyl]hexahydro-2,5-methanopentalen-3a(1H)-yl]glycyl}pyrrolidine-2-carbonitrile] | 31.2 nM
N#C[C@@H]1CCCN1C(=O)CNC12CC3CC1CC(Cn1cnnn1)(C3)C2 (stereo partly drawn) [Example 5, (2S)-1-{N-[2-(1H-tetrazol-1-ylmethyl)hexahydro-2,5-methanopentalen-3a(1H)-yl]glycyl}pyrrolidine-2-carbonitrile] | 11 nM
CN1CCN(CC23CC4CC(C2)C(NCC(=O)N2CCC[C@H]2C#N)(C4)C3)CC1 (stereo partly drawn) [Example 6, (2S)-1-{N-[2-[(4-methylpiperazin-1-yl)methyl]hexahydro-2,5-methanopentalen-3a (1H)-yl]glycyl}pyrrolidine-2-carbonitrile] | 100 nM
N#C[C@@H]1CCCN1C(=O)CNC12CC3CC1CC(Cn1cncn1)(C3)C2 (stereo partly drawn) [Example 1, (2S)-1-[1H-1,2,4-triazol-1-ylmethyl(tricyclo[3.3.1.0^3,7]non-3-ylamino)acetyl]pyrrolidine-2-carbonitrile] | 8.1 nM
N#C[C@@H]1C[C@H](F)CN1C(=O)CNC12CC3CC1CC(Cn1cncn1)(C3)C2 (stereo partly drawn) [Example 2, (2S,4S)-4-fluoro-1-{N-[2-(1H-1,2,4-triazol-1-ylmethyl)hexahydro-2,5-methanopentalen-3a(1H)-yl]glycyl}pyrrolidine-2-carbonitrile] | 2.8 nM
N#C[C@@H]1CCCN1C(=O)CNC12CC3CC1CC(CN1CCCS1(=O)=O)(C3)C2 (stereo partly drawn) [Example 8, (2S)-1-{N-[2-[(1,1-dioxidoisothiazolidin-2-yl)methyl]hexahydro-2,5-methanopentalen-3a(1H)-yl]glycyl}pyrrolidine-2-carbonitrile] | 22 nM
N#C[C@@H]1CCCN1C(=O)CNC12CC3CC1CC(c1ccc(N4CCCC4=O)cc1)(C3)C2 (stereo partly drawn) [Example 15, (2S)-1-{N-[2-[4-(2-oxopyrrolidin-1-yl)phenyl]hexahydro-2,5-methanopentalen-3a(1H)-yl]glycyl}pyrrolidine-2-carbonitrile] | 4 nM
N#C[C@@H]1CSCN1C(=O)CNC12CC3CC1CC(Cn1cncn1)(C3)C2 (stereo partly drawn) [Example 4, (4R)-3-{N-[2-(1H-1,2,4-triazol-1-ylmethyl)hexahydro-2,5-methanopentalen-3a(1H)-yl]glycyl}-1,3-thiazolidine-4-carbonitrile] | 7 nM
